# Measurements taken from patent publication US12016355B2, “Stevia composition” (PURECIRCLE SDN BHD, priority 2011, dated 2024).
# Where two headings read alike, the source gives them in different places.
# What was measured:
# [1] = as usually found, literature; cited from earlier work
# [2] = Sugar equivalent sweetness of sweetener/Reb B combinations in plain water, trained panel; details: plain water
# Procedure: In one embodiment, Reb B was combined (at 50, 150 and 300 ppm) with several sweeteners listed in Table 2 to make solutions in plain water. Some of the sweeteners were tested at two different concentrations to obtain around 2% sugar equivalent sweetness without any Reb B. A trained panel conducted sensory tests to determine the effect of the addition of different amounts of Reb B to each sweetener on overall sweetness quality and intensity as shown in Table 4.
# [3] = Sweetness factor (SF) determination by trained panel in water; details: in water, 5% SE
# Procedure: The sweetness factors for different sweetener from all major groups were measured by tasting several concentrations of each sweetener in water by trained panel. From the sensory test at a, the concentration (%) that corresponds to the 5% sucrose equivalent (SE) sweetness were estimated and listed in Table 2. The sweetness equivalent (SE) of high intensity sweeteners (HIS) varies according to the target sugar equivalent sweetness levels, that are tested as shown in Table 3.
# [4] = room temperature; reported values; cited from earlier work
# [5] = assay type: physicochemical
# Procedure: Hereinafter, unless specified otherwise the solubility of material is determined in reverse osmosis (RO) water at room temperature. Where the solubility is expressed as “%” it to be understood as number of grams of material soluble in 100 grams of solvent.
# The temperature was increased at 1° C. per minute to 121° C. The mixture was maintained at 121° C. for 1 hour and then the temperature was decreased to 80° C., at 1° C. per minute, and the obtained solution was spray dried using YC-015 laboratory spray drier (Shanghai Pilotech Instrument & Equipment Co. Ltd., China) operating at 175° C. inlet and 100° C. outlet temperature. Solution was maintained at 80° C. to prevent premature crystallization.
# Solubility were evaluated for Reb A, Reb B, mechanical blends of Reb A and Reb B powders of different ratios, and mixtures of Reb A and Reb B prepared according to process described in EXAMPLE 1.
molecule,measurement,setting,value
C=C1C[C@@]23CC[C@H]4[C@@](C)(CCC[C@@]4(C)C(=O)O[C@@H]4O[C@H](CO)[C@@H](O)[C@H](O)[C@H]4O)[C@@H]2CC[C@]1(O[C@@H]1O[C@H](CO)[C@@H](O)[C@H](O)[C@H]1O[C@@H]1O[C@@H](C)[C@H](O)[C@@H](O)[C@H]1O)C3 [Dulcoside A],times sweeter than sucrose,[1],30 times
OC[C@@H](O)[C@@H](O)CO [Erythritol],Sugar equivalent sweetness (SE) of Sweetener/Reb B combination,"[2]; 0 ppm Reb B, listed as Erythritol (3.5%)",1-1.5%
same,Sugar equivalent sweetness (SE) of Sweetener/Reb B combination,"[2]; 0 ppm Reb B, listed as Erythritol (5.0%)",3%
same,Sugar equivalent sweetness (SE) of Sweetener/Reb B combination,"[2]; 50 ppm Reb B, listed as Erythritol (3.5%)",3%
same,Sugar equivalent sweetness (SE) of Sweetener/Reb B combination,"[2]; 50 ppm Reb B, listed as Erythritol (5.0%)",4%
same,Sugar equivalent sweetness (SE) of Sweetener/Reb B combination,"[2]; 150 ppm Reb B, listed as Erythritol (3.5%)",5.5-6%
same,Sugar equivalent sweetness (SE) of Sweetener/Reb B combination,"[2]; 150 ppm Reb B, listed as Erythritol (5.0%)",8%
same,Sugar equivalent sweetness (SE) of Sweetener/Reb B combination,"[2]; 300 ppm Reb B, listed as Erythritol (3.5%)",9%
same,Sugar equivalent sweetness (SE) of Sweetener/Reb B combination,"[2]; 300 ppm Reb B, listed as Erythritol (5.0%)",9.5%
same,Calculated SF (sweetness factor),[3],0.67
same,"Usage Level, % (concentration corresponding to 5% sucrose equivalent sweetness)",[3],7.49%
OC[C@@H](O)[C@@H](O[C@H]1O[C@H](CO)[C@@H](O)[C@H](O)[C@H]1O)[C@H](O)[C@@H](O)CO [Maltitol],Sugar equivalent sweetness (SE) of Sweetener/Reb B combination,[2]; 0 ppm Reb B,5%
same,Sugar equivalent sweetness (SE) of Sweetener/Reb B combination,[2]; 50 ppm Reb B,6%
same,Sugar equivalent sweetness (SE) of Sweetener/Reb B combination,[2]; 150 ppm Reb B,9%
same,Sugar equivalent sweetness (SE) of Sweetener/Reb B combination,[2]; 300 ppm Reb B,12%
same,Calculated SF (sweetness factor),[3],0.77
same,"Usage Level, % (concentration corresponding to 5% sucrose equivalent sweetness)",[3],6.44%
"C[C@H](CC[C@@H](O[C@@H]1O[C@H](CO[C@@H]2O[C@H](CO)[C@@H](O)[C@H](O)[C@H]2O)[C@@H](O)[C@H](O)[C@H]1O[C@@H]1O[C@H](CO)[C@@H](O)[C@H](O)[C@H]1O)C(C)(C)O)[C@H]1CC[C@@]2(C)[C@@H]3CC=C4[C@@H](CC[C@H](O[C@@H]5O[C@H](CO[C@@H]6O[C@H](CO)[C@@H](O)[C@H](O)[C@H]6O)[C@@H](O)[C@H](O)[C@H]5O)C4(C)C)[C@]3(C)[C@H](O)C[C@]12C [Mogroside V (70%), Mogroside V]",Sugar equivalent sweetness (SE) of Sweetener/Reb B combination,"[2]; 0 ppm Reb B, listed as Mogroside V (100 ppm)",2.5%
same,Sugar equivalent sweetness (SE) of Sweetener/Reb B combination,"[2]; 0 ppm Reb B, listed as Mogroside V (212 ppm)",5.5-6%
same,Sugar equivalent sweetness (SE) of Sweetener/Reb B combination,"[2]; 50 ppm Reb B, listed as Mogroside V (100 ppm)",4%
same,Sugar equivalent sweetness (SE) of Sweetener/Reb B combination,"[2]; 50 ppm Reb B, listed as Mogroside V (212 ppm)",7%
same,Sugar equivalent sweetness (SE) of Sweetener/Reb B combination,"[2]; 150 ppm Reb B, listed as Mogroside V (100 ppm)",5.5%
same,Sugar equivalent sweetness (SE) of Sweetener/Reb B combination,"[2]; 150 ppm Reb B, listed as Mogroside V (212 ppm)",9%
same,Sugar equivalent sweetness (SE) of Sweetener/Reb B combination,"[2]; 300 ppm Reb B, listed as Mogroside V (100 ppm)",8-8.5%
same,Sugar equivalent sweetness (SE) of Sweetener/Reb B combination,"[2]; 300 ppm Reb B, listed as Mogroside V (212 ppm)",10-10.5%
same,Calculated SF (sweetness factor),[3],236
same,"Usage Level, % (concentration corresponding to 5% sucrose equivalent sweetness)",[3],0.0212%
C=C1C[C@@]23CC[C@H]4[C@@](C)(CCC[C@@]4(C)C(=O)O[C@@H]4O[C@H](CO)[C@@H](O)[C@H](O)[C@H]4O)[C@@H]2CC[C@]1(O[C@@H]1O[C@H](CO)[C@@H](O)[C@H](O[C@@H]2O[C@H](CO)[C@@H](O)[C@H](O)[C@H]2O)[C@H]1O[C@@H]1O[C@@H](C)[C@H](O)[C@@H](O)[C@H]1O)C3 [Rebaudioside C],times sweeter than sucrose,[1],40-60 times
OC[C@H]1O[C@H](O[C@]2(CCl)O[C@H](CCl)[C@@H](O)[C@@H]2O)[C@H](O)[C@@H](O)[C@H]1Cl [Sucralose],Sugar equivalent sweetness (SE) of Sweetener/Reb B combination,"[2]; 0 ppm Reb B, listed as Sucralose 83 ppm",5%
same,Sugar equivalent sweetness (SE) of Sweetener/Reb B combination,"[2]; 0 ppm Reb B, listed as Sucralose (40 ppm)",2-2.5%
same,Sugar equivalent sweetness (SE) of Sweetener/Reb B combination,"[2]; 50 ppm Reb B, listed as Sucralose 83 ppm",7%
same,Sugar equivalent sweetness (SE) of Sweetener/Reb B combination,"[2]; 50 ppm Reb B, listed as Sucralose (40 ppm)",5%
same,Sugar equivalent sweetness (SE) of Sweetener/Reb B combination,"[2]; 150 ppm Reb B, listed as Sucralose 83 ppm",11%
same,Sugar equivalent sweetness (SE) of Sweetener/Reb B combination,"[2]; 150 ppm Reb B, listed as Sucralose (40 ppm)",7.5-8%
same,Sugar equivalent sweetness (SE) of Sweetener/Reb B combination,"[2]; 300 ppm Reb B, listed as Sucralose 83 ppm",14%
same,Sugar equivalent sweetness (SE) of Sweetener/Reb B combination,"[2]; 300 ppm Reb B, listed as Sucralose (40 ppm)",11%
same,Calculated SF (sweetness factor),[3],602
same,"Usage Level, % (concentration corresponding to 5% sucrose equivalent sweetness)",[3],0.0083%
OC[C@H]1O[C@@](CO)(O[C@H]2O[C@H](CO)[C@@H](O)[C@H](O)[C@H]2O)[C@@H](O)[C@@H]1O [Sugar],Calculated SF (sweetness factor),[3],1
same,"Usage Level, % (concentration corresponding to 5% sucrose equivalent sweetness)",[3],5%
Rebaudioside D [Reb D],water solubility,[4],0.01-0.05%
same,water solubility,[5],0.03%
same,Calculated SF (sweetness factor),[3],291
same,"Usage Level, % (concentration corresponding to 5% sucrose equivalent sweetness)",[3],0.0172%
